One experiment has as its target Cbl-b (Homo sapiens (Human), UniProt Q13191). As to the kind of experiment: Cbl-b LCK Ub TR-FRET assay (Cbl-b Lck HTRF). Format: biochemical. The essentials: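 Biotin-Cbl-b preincubated with compound (10-point 3-fold series) 60 min, then His-LCK with 1 mM ATP (2× mixture) added for 90 min at room temperature. Ubiquitination detected by TR-FRET using HA-ubiquitin/UBE2D2 adduct, anti-HA-D2 and streptavidin-Eu; IC50 normalised to no-LCK and DMSO controls.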
On the technique in general: Time-resolved FRET reads energy transfer from a long-lived donor to a nearby acceptor.

A further experiment concerns the target c-Cbl (Homo sapiens (Human), UniProt P22681). As to the kind of experiment: C-Cbl LCK Ub TR-FRET assay (c-cbl Lck HTRF). Format: biochemical. The following applies: for (fold-selectivity): C-cbl Lck HTRF IC50 relative to Cbl-b Lck HTRF IC50. The method in brief: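 After the ubiquitination reaction, detection mixture was added and plates incubated 20 min at room temperature before reading. IC50 values were calculated with wells lacking LCK as the low control and DMSO as the high control.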

Chain of c-Cbl (P22681 47-435): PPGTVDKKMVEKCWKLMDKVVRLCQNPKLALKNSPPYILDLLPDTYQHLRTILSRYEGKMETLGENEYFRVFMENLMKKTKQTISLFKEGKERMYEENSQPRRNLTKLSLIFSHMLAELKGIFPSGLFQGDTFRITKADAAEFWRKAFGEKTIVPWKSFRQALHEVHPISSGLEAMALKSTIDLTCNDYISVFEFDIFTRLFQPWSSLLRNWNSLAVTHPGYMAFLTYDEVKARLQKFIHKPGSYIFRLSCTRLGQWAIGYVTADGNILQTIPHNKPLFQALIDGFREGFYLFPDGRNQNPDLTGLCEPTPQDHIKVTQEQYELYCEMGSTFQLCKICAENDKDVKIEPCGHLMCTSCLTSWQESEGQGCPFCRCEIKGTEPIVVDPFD
Chain of Cbl-b (Q13191 40-426): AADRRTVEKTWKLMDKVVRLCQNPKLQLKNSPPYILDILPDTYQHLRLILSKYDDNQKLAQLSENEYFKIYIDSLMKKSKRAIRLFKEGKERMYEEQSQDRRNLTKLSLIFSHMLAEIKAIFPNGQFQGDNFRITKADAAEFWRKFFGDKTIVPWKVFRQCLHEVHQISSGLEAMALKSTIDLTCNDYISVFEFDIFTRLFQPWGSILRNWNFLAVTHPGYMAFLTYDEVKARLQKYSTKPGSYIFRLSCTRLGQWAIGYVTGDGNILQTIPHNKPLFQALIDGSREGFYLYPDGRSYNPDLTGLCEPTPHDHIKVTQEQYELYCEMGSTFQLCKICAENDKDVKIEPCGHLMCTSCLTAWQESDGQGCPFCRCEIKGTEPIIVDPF

With `CC(C)[C@H]1CNCCN1Cc1cc2c(c(C(F)(F)F)c1)CN(c1cccc(C3([C@@H](F)c4nncn4C)COC3)c1)C2=O` [Compound 96, 2-(3-(3((R)-fluoro(4-methyl-4H-1,2,4-triazol-3-yl)methyl)oxetan-3-yl)phenyl)-6-(((S)-2-isopropylpiperazin-1-yl)methyl)-4-(trifluoromethyl)isoindolin-1-one], inhibition against Cbl-b was half-maximal at 12 nM (IC50). For the same compound, at c-Cbl, the IC50 (usually the point on the concentration scale where inhibition reaches its midpoint) turned out to be 18 nM and the “(fold-selectivity)” value is reported as 1.5x.
At Cbl-b, `CC(C)[C@H]1CNCCN1Cc1cc2c(c(C(F)(F)F)c1)CN(c1cccc(C3([C@H](F)c4nncn4C)COC3)c1)C2=O` [Compound 97, 2-(3-(3-((S)-fluoro(4-methyl-4H-1,2,4-triazol-3-yl)methyl)oxetan-3-yl)phenyl)-6-(((S)-2-isopropylpiperazin-1-yl)methyl)-4-(trifluoromethyl)isoindolin-1-one] yielded a half-inhibitory concentration (IC50) of 20 nM. Further, at c-Cbl, half-maximal inhibition (IC50) required 38 nM and the “(fold-selectivity)” value amounted to 1.9x.
With `Cn1cnnc1C[C@]1(c2cccc(N3Cc4c(cccc4C(F)(F)F)C3=O)c2)C[C@@H](F)C1` [Compound 99, 2-(3-((1s,3r)-3-fluoro-1-((4-methyl-4H-1,2,4-triazol-3-yl)methyl)cyclobutyl)phenyl)-4-(trifluoromethyl)isoindolin-1-one], the results for the IC50 against Cbl-b and against c-Cbl were 170 nM and 340 nM, respectively. Moreover, the “(fold-selectivity)” value on c-Cbl was determined as 2.0x.
The matching figures for `Cn1cnnc1C[C@]1(c2cccc(N3Cc4c(cccc4C(F)(F)F)C3=O)c2)C[C@H](F)C1` [Compound 100, 2-(3-((1r,3s)-3-fluoro-1-((4-methyl-4H-1,2,4-triazol-3-yl)methyl)cyclobutyl)phenyl)-4-(trifluoromethyl)isoindolin-1-one]: 190 nM, 380 nM and 1.9x.
For `Cn1cnnc1CC1(c2cccc(N3Cc4c(cc(CN5CC[C@@H](CCl)C5)cc4C(F)(F)F)C3=O)c2)COC1` [Compound 101, (R)-6-((3-(chloromethyl)pyrrolidin-1-yl)methyl)-2-(3-(3-((4-methyl-4H-1,2,4-triazol-3-yl)methyl)oxetan-3-yl)phenyl)-4-(trifluoromethyl)isoindolin-1-one] the same measures were 18 nM, 23 nM and 1.2x.
The matching figures for `Cn1cnnc1CC1(c2cccc(N3Cc4c(cc(CN5CC[C@H](CCl)C5)cc4C(F)(F)F)C3=O)c2)COC1` [Compound 102, (S)-6-((3-(chloromethyl)pyrrolidin-1-yl)methyl)-2-(3-(3-((4-methyl-4H-1,2,4-triazol-3-yl)methyl)oxetan-3-yl)phenyl)-4-(trifluoromethyl)isoindolin-1-one]: 18 nM, 25 nM and 1.4x.
Take `Cn1cnnc1[C@H](F)C1(c2cccc(N3Cc4c(cc(CN5CC(C)(CCl)C5)cc4C(F)(F)F)C3=O)c2)COC1` [Compound 103, (R)-6-((3-(chloromethyl)-3-methylazetidin-1-yl)methyl)-2-(3-(3-(fluoro(4-methyl-4H-1,2,4-triazol-3-yl)methyl)oxetan-3-yl)phenyl)-4-(trifluoromethyl)isoindolin-1-one]: the IC50 on Cbl-b is 15 nM; against c-Cbl, 22 nM. Also, at c-Cbl, the “(fold-selectivity)” value came to 1.5x.
With `Cn1cnnc1[C@@H](F)C1(c2cccc(N3Cc4c(cc(CN5CC(C)(CCl)C5)cc4C(F)(F)F)C3=O)c2)COC1` [Compound 104, (S)-6-((3-(chloromethyl)-3-methylazetidin-1-yl)methyl)-2-(3-(3-(fluoro(4-methyl-4H-1,2,4-triazol-3-yl)methyl)oxetan-3-yl)phenyl)-4-(trifluoromethyl)isoindolin-1-one], the results for the IC50 on Cbl-b and at c-Cbl were 48 nM and 89 nM, respectively. Besides, the “(fold-selectivity)” value on c-Cbl was determined as 1.9x.
In the case of `Cn1cnnc1CC1(c2cccc(N3Cc4c(cc(CN5Cc6c[nH]nc6C5)cc4C(F)(F)F)C3=O)c2)CC(F)(F)C1` [Compound 105, 2-(3-(3,3-difluoro-1-((4-methyl-4H-1,2,4-triazol-3-yl)methyl)cyclobutyl)phenyl)-6-((2,6-dihydropyrrolo[3,4-c]pyrazol-5(4H)-yl)methyl)-4-(trifluoromethyl)isoindolin-1-one], the IC50 on Cbl-b turned out to be 26 nM. In addition, at c-Cbl, the IC50 stood at 25 nM and the “(fold-selectivity)” value came out at 0.93x.
Take `Cn1cnnc1CC1(c2cccc(N3Cc4c(cc(CN5CCC6(CC6)C5)cc4C(F)(F)F)C3=O)c2)CC(F)(F)C1` [Compound 106, 6((5-azaspiro[2.4]heptan-5-yl)methyl)-2-(3-(3,3-difluoro-1-((4-methyl-4H-1,2,4-triazol-3-yl)methyl)cyclobutyl)phenyl)-4-(trifluoromethyl)isoindolin-1-one]: the IC50 on Cbl-b came out at 18 nM; against c-Cbl, 15 nM. The “(fold-selectivity)” value at c-Cbl is given as 0.81x.
With `Cn1cnnc1CC1(c2cccc(N3Cc4c(cc(CN5CC(C)(F)C5)cc4C(F)(F)F)C3=O)c2)CC(F)(F)C1` [Compound 107, 2-(3-(3,3-difluoro-1-((4-methyl-4H-1,2,4-triazol-3-yl)methyl)cyclobutyl)phenyl)-6-((3-fluoro-3-methylazetidin-1-yl)methyl)-4-(trifluoromethyl)isoindolin-1-one], at Cbl-b, inhibition was half-maximal at 18 nM (IC50). For the same compound, at c-Cbl, 19 nM corresponded to half-maximal inhibition (IC50) and the “(fold-selectivity)” value is recorded as 1.0x.
For `C[C@@H](c1cc2c(c(C(F)(F)F)c1)CN(c1cccc(C3([C@@H](F)c4nncn4C)COC3)c1)C2=O)N1CC(C)(F)C1` [Compound 108, 2-(3-(3((R)-fluoro(4-methyl-4H-1,2,4-triazol-3-yl)methyl)oxetan-3-yl)phenyl)-6-((S)-1-(3-fluoro-3-methylazetidin-1-yl)ethyl)-4-(trifluoromethyl)isoindolin-1-one] the same measures were 83 nM, 160 nM and 2.0x.
The compound `C[C@H](c1cc2c(c(C(F)(F)F)c1)CN(c1cccc(C3([C@@H](F)c4nncn4C)COC3)c1)C2=O)N1CC(C)(F)C1` [Compound 109, 2-(3-(3((R)-fluoro(4-methyl-4H-1,2,4-triazol-3-yl)methyl)oxetan-3-yl)phenyl)-6-((R)-1-(3-fluoro-3-methylazetidin-1-yl)ethyl)-4-(trifluoromethyl)isoindolin-1-one] registered an IC50 on Cbl-b of 44 nM. At c-Cbl, the IC50 is 85 nM and the “(fold-selectivity)” value is given as 1.9x.
`C[C@@H](c1cc2c(c(C(F)(F)F)c1)CN(c1cccc(C3([C@H](F)c4nncn4C)COC3)c1)C2=O)N1CC(C)(F)C1` [Compound 110, 2-(3-(3-((S)-fluoro(4-methyl-4H-1,2,4-triazol-3-yl)methyl)oxetan-3-yl)phenyl)-6-((S)-1-(3-fluoro-3-methylazetidin-1-yl)ethyl)-4-(trifluoromethyl)isoindolin-1-one]: the values for the IC50 against Cbl-b and against c-Cbl were 320 nM and 650 nM, respectively. Further, the “(fold-selectivity)” value on c-Cbl is 2.0x.
In turn, `C[C@H](c1cc2c(c(C(F)(F)F)c1)CN(c1cccc(C3([C@H](F)c4nncn4C)COC3)c1)C2=O)N1CC(C)(F)C1` [Compound 111, 2-(3-(3-((S)-fluoro(4-methyl-4H-1,2,4-triazol-3-yl)methyl)oxetan-3-yl)phenyl)-6-((R)-1-(3-fluoro-3-methylazetidin-1-yl)ethyl)-4-(trifluoromethyl)isoindolin-1-one] had an IC50 at Cbl-b of 190 nM. Further, on c-Cbl, it took 340 nM to reach half-maximal inhibition (IC50) and the “(fold-selectivity)” value was found to be 1.8x.
For `Cn1cnnc1[C@H](F)C1(c2cccc(N3Cc4c(cc(Oc5cn[nH]c5)cc4C(F)(F)F)C3=O)c2)COC1` [Compound 116, (R)-6-((1H-pyrazol-4-yl)oxy)-2-(3-(3-(fluoro(4-methyl-4H-1,2,4-triazol-3-yl)methyl)oxetan-3-yl)phenyl)-4-(trifluoromethyl)isoindolin-1-one] the same measures were 310 nM, 330 nM and 1.1x.
`Cn1cnnc1[C@@H](F)C1(c2cccc(N3Cc4c(cc(Oc5cn[nH]c5)cc4C(F)(F)F)C3=O)c2)COC1` [Compound 117, (S)-6-((1H-pyrazol-4-yl)oxy)-2-(3-(3-(fluoro(4-methyl-4H-1,2,4-triazol-3-yl)methyl)oxetan-3-yl)phenyl)-4-(trifluoromethyl)isoindolin-1-one]: the IC50 against Cbl-b is 540 nM. At c-Cbl, the IC50 was 750 nM and the “(fold-selectivity)” value worked out at 1.4x.
With `C[C@H]1CN(Cc2cc3c(c(C(F)(F)F)c2)CN(c2cccc(C4([C@@H](F)c5nncn5C)COC4)c2)C3=O)CCCO1` [Compound 118, 2-(3-(3-((R)-fluoro(4-methyl-4H-1,2,4-triazol-3-yl)methyl)oxetan-3-yl)phenyl)-6-(((S)-2-methyl-1,4-oxazepan-4-yl)methyl)-4-(trifluoromethyl)isoindolin-1-one], the figures for the IC50 on Cbl-b and on c-Cbl were 7 nM and 8 nM, respectively. For the same compound, the “(fold-selectivity)” value on c-Cbl was 1.1x.
The matching figures for `C[C@@H]1CN(Cc2cc3c(c(C(F)(F)F)c2)CN(c2cccc(C4([C@@H](F)c5nncn5C)COC4)c2)C3=O)CCCO1` [Compound 119, 2-(3-(3((R)-fluoro(4-methyl-4H-1,2,4-triazol-3-yl)methyl)oxetan-3-yl)phenyl)-6-(((R)-2-methyl-1,4-oxazepan-4-yl)methyl)-4-(trifluoromethyl)isoindolin-1-one]: 48 nM, 52 nM and 1.1x.

These data come from patent US20250230147A1, “LACTAMS AS CBL-B INHIBITORS” (Genentech, Inc., priority 2021, published 2025).
